System: LS174T xenografts
Assay: Biodistribution of ^125I-CC49-TCO 18 and ^177Lu-tetrazine 15 with one or two doses of 12 (Example 9)
Format: in vivo, mice
Procedure: LS174T tumor model. The human colon cancer cell line LS174T was obtained from the ATCC and maintained in Eagle's minimal essential medium (Sigma) supplemented with 10% heat inactivated fetal calf serum (Gibco), penicillin (100 U/mL), streptomycin (100 μg/mL) and […] Glutamax. Nude female Balb/C mice (20-25 g body weight, Charles River Laboratories) were inoculated subcutaneously with 5×10^6 cells in 100 μL sterile PBS.
Nude female mice (n=4) bearing LS174T xenografts (0.29±0.16 g) were injected ^125I-CC49-TCO 18 (t=0, 100 μg/100 μl per mouse) followed by one 160 μg/100 μl dose of galactose-MSA-tetrazine (12) 30 hours post mAb injection, or two 160 μg/100 μl 12 doses 30 and 48 hours post mAb injection. Two hours after the last clearing agent dose the mice were administered 8.52 μg of ^177Lu-labeled tetrazine 15 (10 equiv. with respect to mAb) and were sacrificed 3 hours post tetrazine injection. Blood was withdrawn by heart puncture and selected organs and tissues were harvested and blotted dry. The blood samples and tissues were weighed, added with 1 mL PBS and the radioactivity was counted in a gamma counter along with standards to determine the % ID/g. The differences between columns were analyzed using the two-tailed unpaired t-test (Graphpad Prism v. 5.01)

[1] = Two doses of 12, 30 and 48 h post mAb

O=C([O-])CN1CCN(CC(=O)[O-])CCN(CC(=O)NCCOCCOCCOCCOCCOCCOCCOCCOCCOCCOCCOCCNC(=O)CCCC(=O)Nc2ccc(-c3nnc(-c4ccccn4)nn3)nc2)CCN(CC(=O)[O-])CC1.[177Lu+3] [^177Lu-tetrazine]
^177Lu-tetrazine T/blood (One dose of 12, 30 h post mAb): 45.9±14.2 | ^177Lu-tetrazine T/bone (One dose of 12, 30 h post mAb): 136.1 ± 68.7 | ^177Lu-tetrazine T/brain (One dose of 12, 30 h post mAb): 935.9 ± 297.1 | ^177Lu-tetrazine T/heart (One dose of 12, 30 h post mAb): 64.7 ± 18.0 | ^177Lu-tetrazine T/kidney (One dose of 12, 30 h post mAb): 7.9 ± 3.3 | ^177Lu-tetrazine T/liver (One dose of 12, 30 h post mAb): 32.4 ± 6.3 | ^177Lu-tetrazine T/lung (One dose of 12, 30 h post mAb): 28.1 ± 11.8 | ^177Lu-tetrazine T/muscle (One dose of 12, 30 h post mAb): 128.5 ± 83.7 | ^177Lu-tetrazine T/spleen (One dose of 12, 30 h post mAb): 50.5 ± 10.9 | ^177Lu-tetrazine in blood (One dose of 12, 30 h post mAb): 0.17 ± 0.06 % ID/g | ^177Lu-tetrazine in bone (One dose of 12, 30 h post mAb): 0.06 ± 0.03 % ID/g | ^177Lu-tetrazine in brain (One dose of 12, 30 h post mAb): 0.01 ± 0.00 % ID/g | ^177Lu-tetrazine in heart (One dose of 12, 30 h post mAb): 0.12 ± 0.03 % ID/g | ^177Lu-tetrazine in kidney (One dose of 12, 30 h post mAb): 1.06 ± 0.39 % ID/g | ^177Lu-tetrazine in liver (One dose of 12, 30 h post mAb): 0.23 ± 0.00 % ID/g | ^177Lu-tetrazine in lung (One dose of 12, 30 h post mAb): 0.28 ± 0.05 % ID/g | ^177Lu-tetrazine in muscle (One dose of 12, 30 h post mAb): 0.08 ± 0.04 % ID/g | ^177Lu-tetrazine in spleen (One dose of 12, 30 h post mAb): 0.15 ± 0.03 % ID/g | ^177Lu-tetrazine in tumor (One dose of 12, 30 h post mAb): 7.48 ± 1.46 % ID/g | ^177Lu-tetrazine T/bone [1]: 123.3 ± 80.3 | ^177Lu-tetrazine T/brain [1]: 1146.7 ± 122.9 | ^177Lu-tetrazine T/heart [1]: 142.4 ± 18.5 | ^177Lu-tetrazine T/kidney [1]: 3.4 ± 0.4 | ^177Lu-tetrazine T/liver [1]: 30.8 ± 2.9 | ^177Lu-tetrazine T/lung [1]: 26.2 ± 3.9 | ^177Lu-tetrazine T/muscle [1]: 140.9 ± 67.1 | ^177Lu-tetrazine T/spleen [1]: 63.7 ± 9.2 | ^177Lu-tetrazine in blood [1]: 0.03 ± 0.00 % ID/g | ^177Lu-tetrazine in bone [1]: 0.08 ± 0.08 % ID/g | ^177Lu-tetrazine in brain [1]: 0.00 ± 0.00 % ID/g | ^177Lu-tetrazine in heart [1]: 0.04 ± 0.00 % ID/g | ^177Lu-tetrazine in kidney [1]: 1.58 ± 0.14 % ID/g | ^177Lu-tetrazine in liver [1]: 0.18 ± 0.02 % ID/g | ^177Lu-tetrazine in lung [1]: 0.21 ± 0.03 % ID/g | ^177Lu-tetrazine in muscle [1]: 0.05 ± 0.03 % ID/g | ^177Lu-tetrazine in spleen [1]: 0.09 ± 0.01 % ID/g | ^177Lu-tetrazine in tumor [1]: 5.38 ± 0.48 % ID/g

From patent US9427482B2, “Agents for clearing biomolecules from circulation” (KONINKLIJKE PHILIPS N.V., priority 2010, dated 2016)
